In patent US10933032B2, “Methods for the treatment of cancer using coenzyme Q10 combination therapies” (Berg LLC, priority 2013, dated 2021):

Experiments:
Experiment in all cases: Induction of early apoptosis (Bcl-2, annexin V, or caspase activation)
Assay type in all cases: cell-based
Fibroblasts (nFib) = conditions: SKIN: Fibroblasts (nFib)
Description: (§1) The effects of Coenzyme Q10 treatment on a variety of oncogenic and normal cell lines were examined and compared. The sensitivity of cells to Coenzyme Q10 was assessed by monitoring induction of apoptosis. CoQ10 treatment of cells was carried out as described in detail below in the Materials and Methods. Induction of apoptosis was assessed in the treated cells by monitoring indicators of early apoptosis (e.g., Bcl-2 expression, caspase activation and by using annexin V assays) as described below. From these studies, the minimal CoQ10 dosage, e.g., concentration of CoQ10 and time of treatment, required to induce apoptosis in the panel of cell lines was determined.
(§2) Cells were cultured in T-75 flasks with relevant medium supplemented with 10% Fetal Bovine Serum (FBS), 1% PSA (penicillin, streptomycin, amphotericin B) (Invitrogen and Cellgro) in a 37° C. incubator with 5% CO2 levels until 70-80% confluence was reached. To harvest cells for treatment, flasks were primed with 1 mL Trypsin, aspirated, trypsinized with an additional 3 mL, and incubated at 37° C. for 3-5 minutes. Cells were then neutralized with an equal volume of media and the subsequent solution was centrifuged at […] for 8 minutes. The supernatant was aspirated and the cells were resuspended with 8.5 ml of media. A mixture of 500 ul of the resuspension and 9.5 ml of […] was read twice by a coulter counter and the appropriate number of cells to be seeded into each dish was determined. Control and concentration ranging from 0-200 μM groups were examined in triplicate. From a 500 μM CoQ-10 stock solution, serial dilutions were performed to achieve desired experimental concentration in appropriate dishes. Dishes were incubated in a 37° C. incubator with 5% CO2 levels for 0-72 hours depending on cell type and experimental protocol.
(§3) Following cell treatment incubation period was complete, protein isolation was performed. Dishes of all treatment groups were washed twice with 2 ml, and once with 1 ml of ice cold 1× Phosphate Buffered Saline (PBS). The PBS was aspirated from the dishes after the initial 2 washes only. Cells were gently scraped and collected into microcentrifuge tubes using the final volume from the third wash and centrifuged at 10,000 rpm for 10 minutes. After centrifugation, the supernatant was aspirated and the pellet was lysed with 50 uL of lysis buffer (1 uL of protease and phosphotase inhibitor for every 100 uL of lysis buffer). Samples were then frozen overnight at −20° C.
(§4) After the cell treatment incubation period was complete, protein isolation was performed. Flasks of all treatment groups were washed twice with 5 mL, and once with 3 mL of ice cold 1×PBS. The PBS was aspirated from the flasks after the first 2 washes only. Cells were gently scraped and collected into 15 mL centrifuge tubes using the final volume from the third wash and centrifuged for at 10,000 rpm for 10 minutes. After centrifugation, the supernatant was aspirated and the pellet was lysed with an appropriate amount of lysis buffer (1 uL of protease and phosphotase inhibitor for every 100 uL of lysis buffer). Lysis buffer volume was dependent on pellet size. Samples were transferred in microcentrifuge tubes and frozen overnight at −20° C.
(§5) Samples were thawed at […] and sonicated to ensure homogenization the day following protein isolation. Protein quantification was performed using the micro BCA protein assay kit (Pierce). To prepare samples for Immuno-blotting, a 1:19 solution of betamercaptoethanol (Sigma) to sample buffer (Bio-Rad) was prepared. Samples were diluted 1:1 with the betamercaptoethanol-sample buffer solution, boiled at 95° C. for 5 minutes, and frozen overnight at −20° C.
(§6) The volume of sample to load per well was determined using the raw mean concentration of protein obtained from the BCA protein assay. Approximately 30-60 μg of protein were loaded for each treatment time point. […]

ZR-75 = conditions: BREAST: ZR-75
Description: as §1, §2, §3, §4, §5, §6

SkBr-3 = conditions: BREAST: SkBr-3
Description: as §1, §2, §3, §4, §5, §6

PC3 = conditions: PROSTATE: PC3
Description: as §1, §2, §3, §4, §5, §6

[1] = system: Mammary fiboblasts: 184A1 and 184B5) (Lawrence Berkeley); conditions: BREAST: Mammary fiboblasts: 184A1 and 184B5
Description: as §1, §2, §3, §4, §5, §6

MCF-7 = conditions: BREAST: MCF-7
Description: as §1, §2, §3, §4, §5, §6

Melanoma (Skmel 2) = conditions: SKIN: Melanoma (Skmel 2)
Description: as §1, §2, §3, §4, §5, §6

MDA MB 468 = conditions: BREAST: MDA MB 468
Description: as §1, §2, §3, §4, §5, §6

BT-20 = conditions: BREAST: BT-20
Description: as §1, §2, §3, §4, §5, §6

Ewing's sarcoma (NCI) = conditions: BONE: Ewing's sarcoma (NCI)
Description: as §1, §2, §3, §4, §5, §6

HepG2 = conditions: LIVER: HepG2
Description: as §1, §2, §3, §4, §5, §6

Melanocytes (Hema, LP) = conditions: SKIN: Melanocytes (Hema, LP)
Description: as §1, §2, §3, §4, §5, §6

[2] = system: Keratinocytes (Heka, Hekn); conditions: SKIN: Keratinocytes (Heka, Hekn)
Description: as §1, §2, §3, §4, §5, §6

Hep3B = conditions: LIVER: Hep3B
Description: as §1, §2, §3, §4, §5, §6

[3] = system: Aortic smooth muscle (HASMC); conditions: Heart: Aortic smooth muscle (HASMC)
Description: as §1, §2, §3, §4, §5, §6

[4] = system: SCC, Squamous cell carcinoma; conditions: SKIN: SCC
Description: as §1, §2, §3, §4, §5, §6

PaCa2 = conditions: PANCREAS: PaCa2
Description: as §1, §2, §3, §4, §5, §6

Osteosarcoma (143b) = conditions: BONE: Osteosarcoma (143b)
Description: as §1, §2, §3, §4, §5, §6

Structure (SMILES): COC1=C(OC)C(=O)C(C/C=C(\C)CC/C=C(\C)CC/C=C(\C)CC/C=C(\C)CC/C=C(\C)CC/C=C(\C)CC/C=C(\C)CC/C=C(\C)CC/C=C(\C)CCC=C(C)C)=C(C)C1=O [CoQ10, Coenzyme Q10]
- Indication of Early apoptosis (Bcl-2, annexin V, or caspase activation) (Fibroblasts (nFib)): None
- Indication of Early apoptosis (Bcl-2, annexin V, or caspase activation) (ZR-75): Slight
- Minimal CoQ10 concentration required for induction of early apoptosis, Concentration (ZR-75): 200 µM
- Minimal treatment time required for induction of early apoptosis, Time (ZR-75): 72 h
- Indication of Early apoptosis (Bcl-2, annexin V, or caspase activation) (SkBr-3): Very Strong
- Minimal CoQ10 concentration required for induction of early apoptosis, Concentration (SkBr-3): 50 µM
- Minimal treatment time required for induction of early apoptosis, Time (SkBr-3): 24 h
- Indication of Early apoptosis (Bcl-2, annexin V, or caspase activation) (PC3): Very Strong
- Minimal CoQ10 concentration required for induction of early apoptosis, Concentration (PC3): 25 µM
- Minimal treatment time required for induction of early apoptosis, Time (PC3): 24 h
- Indication of Early apoptosis (Bcl-2, annexin V, or caspase activation) [1]: None
- Indication of Early apoptosis (Bcl-2, annexin V, or caspase activation) (MCF-7): Strong
- Minimal CoQ10 concentration required for induction of early apoptosis, Concentration (MCF-7): 50 µM
- Minimal treatment time required for induction of early apoptosis, Time (MCF-7): 48 h
- Indication of Early apoptosis (Bcl-2, annexin V, or caspase activation) (Melanoma (Skmel 2)): Very Strong
- Minimal CoQ10 concentration required for induction of early apoptosis, Concentration (Melanoma (Skmel 2)): 25 µM
- Minimal treatment time required for induction of early apoptosis, Time (Melanoma (Skmel 2)): 24 h
- Indication of Early apoptosis (Bcl-2, annexin V, or caspase activation) (MDA MB 468): Strong
- Minimal CoQ10 concentration required for induction of early apoptosis, Concentration (MDA MB 468): 100 µM
- Minimal treatment time required for induction of early apoptosis, Time (MDA MB 468): 48 h
- Indication of Early apoptosis (Bcl-2, annexin V, or caspase activation) (BT-20): Strong
- Minimal CoQ10 concentration required for induction of early apoptosis, Concentration (BT-20): 100 µM
- Minimal treatment time required for induction of early apoptosis, Time (BT-20): 48 h
- Minimal CoQ10 concentration required for induction of early apoptosis, Concentration (Ewing's sarcoma (NCI)): 5 µM
- Minimal treatment time required for induction of early apoptosis, Time (Ewing's sarcoma (NCI)): 1 h
- Indication of Early apoptosis (Bcl-2, annexin V, or caspase activation) (Ewing's sarcoma (NCI); cell wraps: Extremely / strong): Extremely
- Indication of Early apoptosis (Bcl-2, annexin V, or caspase activation) (HepG2): Very Strong
- Minimal CoQ10 concentration required for induction of early apoptosis, Concentration (HepG2): 50 µM
- Minimal treatment time required for induction of early apoptosis, Time (HepG2): 24 h
- Indication of Early apoptosis (Bcl-2, annexin V, or caspase activation) (Melanocytes (Hema, LP)): None
- Indication of Early apoptosis (Bcl-2, annexin V, or caspase activation) [2]: None
- Indication of Early apoptosis (Bcl-2, annexin V, or caspase activation) (Hep3B): Very Strong
- Minimal CoQ10 concentration required for induction of early apoptosis, Concentration (Hep3B): 50 µM
- Minimal treatment time required for induction of early apoptosis, Time (Hep3B): 24 h
- Indication of Early apoptosis (Bcl-2, annexin V, or caspase activation) [3]: None
- Indication of Early apoptosis (Bcl-2, annexin V, or caspase activation) [4]: Very Strong
- Minimal CoQ10 concentration required for induction of early apoptosis, Concentration [4]: 25 µM
- Minimal treatment time required for induction of early apoptosis, Time [4]: 24 h
- Indication of Early apoptosis (Bcl-2, annexin V, or caspase activation) (PaCa2): Very Strong
- Minimal CoQ10 concentration required for induction of early apoptosis, Concentration (PaCa2): 25 µM
- Minimal treatment time required for induction of early apoptosis, Time (PaCa2): 24 h
- Indication of Early apoptosis (Bcl-2, annexin V, or caspase activation) (Osteosarcoma (143b)): Very Strong
- Minimal CoQ10 concentration required for induction of early apoptosis, Concentration (Osteosarcoma (143b)): 50 µM
- Minimal treatment time required for induction of early apoptosis, Time (Osteosarcoma (143b)): 48 h
